Experimental data: patent publication US8975417B2, “Pyrazolopyrrolidine derivatives and their use in the treatment of disease” (Novartis AG, priority 2013, dated 2015)

Legend:
Type in all cases: cell-based
MV-4-11 cells = experiment: Cell growth inhibition assay (CellTiter-Glo), MV-4-11; settings: Homo sapiens, MV4-11, read-out: MV-4-11 TGI
Procedure, shortened: (§1)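 Dose-response over 3-fold dilutions from 10 μM; 0.1% DMSO control. Endpoint: CellTiter-Glo ATP signal, background-subtracted and day 0-corrected.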

[1] = target: nuclear BRD4-NUT foci in HCC2494 NUT midline carcinoma cells (Homo sapiens (Human), UniProt O60885+Q86Y26); experiment: Nut-foci formation assay; settings: 24 hours, read-out: HCS Brd4-NUT IC50
Description: HCC2494 NUT midline carcinoma cells (expressing BRD4-NUT-fusion) were obtained from the University of Texas Southwestern and cultured in RPMI-1640 medium containing 10% Foetal Calf Serum at 37° C. in a humidified 5% CO2 incubator.
Compound-mediated inhibition of BRD4 activity was monitored by quantification of the number and intensity of nuclear BRD4-NUT foci using automated immunofluorescence microscopy. Briefly, 5000 cells in 20 μL fresh medium were seeded into Poly-D-Lysine-precoated 384-well plates and incubated overnight at 37° C. and 5% CO2, followed by addition of 5 μl medium containing compound dilutions at 5-fold their final intended concentration. Dose-response effects were assessed by 3-fold serial dilutions of the test compound, starting at 10 μM. Following incubation of the cells for 24 hours at 37° C. and 5% CO2, the cells were fixed by incubation with 3.7% formaldehyde for 10 min, followed by immunofluorescence staining using rabbit anti-NUT (Cell Signaling Technologies, Cat#3625) as primary, and AlexaFluor488-labeled goat anti-rabbit (Invitrogen, Cat#A11008) as secondary antibody (latter complemented with 1 μg/mL Hoechst33342 as DNA dye). Assay plates were imaged using the appropriate filter sets on the Cellomics VTi automated fluorescence microscopy platform (ThermoFisher Scientific) and the population average of the number of NUT-foci per nucleus is quantified using the Cellomics Spot Detection BioApplication image analysis algorithm (ThermoFisher Scientific). The effect of a particular test compound concentration on NUT-foci number and intensity is expressed as percentage of the value obtained for cells treated with vehicle only (DMSO, 0.1% final concentration), which was set as 100. Compound concentrations leading to half-maximal (IC50) inhibition of the aforementioned readout parameters were determined using standard four parameter curve fitting.

THP-1 cells = experiment: Cell growth inhibition assay (CellTiter-Glo), THP-1; settings: Homo sapiens, read-out: THP-1 TGI
Procedure, shortened: as §1

| IC50 [1] | SMILES | IC (total growth inhibition) (MV-4-11 cells) | IC (total growth inhibition) (THP-1 cells) |
| --- | --- | --- | --- |
| 108 nM | CNC(=O)n1nc(C)c2c1C(=O)N(c1cc(C)c3nnc(C)n3c1)C2c1ccc(Cl)cc1 (centres unmarked) [Example 145, 4-(4-chlorophenyl)-5-(3,8-dimethyl-[1,2,4]triazolo[4,3-a]pyridin-6-yl)-N,3-dimethyl-6-oxo-5,6-dihydropyrrolo[3,4-c]pyrazole-1(4H)-carboxamide] | 0.093 µM | 0.335 µM |
| 1350 nM | Cc1cc(N2C(=O)c3nn(C4CNC4)c(C)c3C2c2ccc(Cl)cc2)cn2c(C)nnc12 (centres unmarked) [Example 152, 2-(azetidin-3-yl)-4-(4-chlorophenyl)-5-(3,8-dimethyl-[1,2,4]triazolo[4,3-a]pyridin-6-yl)-3-methyl-4,5-dihydropyrrolo[3,4-c]pyrazol-6(2H)-one] | 0.8 µM | 4 µM |
| 106 nM | CCOC(=O)N1CC(n2nc(C)c3c2C(=O)N(c2cc(C)c(=O)n(C)c2)C3c2ccc(Cl)cc2)C1 (centres unmarked) [Example 155, Ethyl 3-(4-(4-chlorophenyl)-5-(1,5-dimethyl-6-oxo-1,6-dihydropyridin-3-yl)-3-methyl-6-oxo-5,6-dihydropyrrolo[3,4-c]pyrazol-1(4H)-yl)azetidine-1-carboxylate] | 0.117 µM | 0.305 µM |
| 39.7 nM | CCn1nc2c(c1C)C(c1ccc(Cl)cc1)N(c1cc(C)c3nnc(C)n3c1)C2=O (centres unmarked) [Example 115, 4-(4-chlorophenyl)-5-(3,8-dimethyl-[1,2,4]triazolo[4,3-a]pyridin-6-yl)-2-ethyl-3-methyl-4,5-dihydropyrrolo[3,4-c]pyrazol-6(2H)-one] | 0.0482 µM | 0.0712 µM |
| 3350 nM | Cc1nn(C2CC2)c2c1C(c1ccc(Cl)cc1)N(c1cc(N(C)C(=O)OC(C)(C)C)c3nnc(C)n3n1)C2=O (centres unmarked) [Example 112, tert-butyl (6-(4-(4-chlorophenyl)-1-cyclopropyl-3-methyl-6-oxopyrrolo[3,4-c]pyrazol-5(1H,4H,6H)-yl)-3-methyl-[1,2,4]triazolo[4,3-b]pyridazin-8-yl)(methyl)carbamate] | 1.21 µM | 3.17 µM |
| 27.8 nM | Cc1cc(N2C(=O)c3nn(C(=O)N(C)C)c(C)c3[C@H]2c2ccc(Cl)cc2)cn2c(C)nnc12 [Example 150, (R)-4-(4-chlorophenyl)-5-(3,8-dimethyl-[1,2,4]triazolo[4,3-a]pyridin-6-yl)-N,N,3-trimethyl-6-oxo-5,6-dihydropyrrolo[3,4-c]pyrazole-2(4H)-carboxamide] | 0.0863 µM | 0.211 µM |
| 99.7 nM | Cc1nn(C2CN(C)C2)c2c1C(c1ccc(Cl)cc1)N(c1cc(C)c3nnc(C)n3c1)C2=O (centres unmarked) [Example 157, 4-(4-chlorophenyl)-5-(3,8-dimethyl-[1,2,4]triazolo[4,3-a]pyridin-6-yl)-3-methyl-1-(1-methylazetidin-3-yl)-4,5-dihydropyrrolo[3,4-c]pyrazol-6(1H)-one] | 0.0833 µM | 0.312 µM |
| 118 nM | CCc1c2c(nn1C(=O)N(C)C)C(=O)N(c1cc(C)c(=O)n(C)c1)C2c1ccc(Cl)cc1 (centres unmarked) [Example 148, 4-(4-chlorophenyl)-5-(1,5-dimethyl-6-oxo-1,6-dihydropyridin-3-yl)-3-ethyl-N,N-dimethyl-6-oxo-5,6-dihydropyrrolo[3,4-c]pyrazole-2(4H)-carboxamide] | 0.114 µM | 0.372 µM |

Second part, the compound before the results:

| SMILES | IC50 [1] | IC (total growth inhibition) (MV-4-11 cells) | IC (total growth inhibition) (THP-1 cells) |
| --- | --- | --- | --- |
| CCc1nn(C2CC2)c2c1[C@@H](c1ccc(Cl)cc1)N(c1cc(C)c3nnc(C)n3c1)C2=O [Example 107, (R)-4-(4-chlorophenyl)-1-cyclopropyl-5-(3,8-dimethyl-[1,2,4]triazolo[4,3-a]pyridin-6-yl)-3-ethyl-4,5-dihydropyrrolo[3,4-c]pyrazol-6(1H)-one] | 2.9 nM | 0.0113 µM | 0.0199 µM |
| Cc1nn(C2CC2)c2c1C(c1ccc(C(F)(F)F)cc1)N(c1cc(C)c(=O)n(C)c1)C2=O (centres unmarked) [Example 97, 1-cyclopropyl-5-(1,5-dimethyl-6-oxo-1,6-dihydropyridin-3-yl)-3-methyl-4-(4-(trifluoromethyl)phenyl)-4,5-dihydropyrrolo[3,4-c]pyrazol-6(1H)-one] | 145 nM | 0.12 µM | 0.274 µM |
| CCc1nn(C2CC2)c2c1C(c1ccc(Cl)cc1)N(c1cc(C)c3nnc(C)n3c1)C2=O (centres unmarked) [Example 70, 4-(4-chlorophenyl)-1-cyclopropyl-5-(3,8-dimethyl-[1,2,4]triazolo[4,3-a]pyridin-6-yl)-3-ethyl-4,5-dihydropyrrolo[3,4-c]pyrazol-6(1H)-one] | 11.4 nM | 0.0131 µM | 0.0305 µM |
| COc1ncc(-n2nc3c(c2C(C)C)C(c2ccc(Cl)cc2)N(c2ccc4onc(C)c4c2)C3=O)c(OC)n1 (centres unmarked) [Example 54, 4-(4-chlorophenyl)-2-(2,4-dimethoxypyrimidin-5-yl)-3-isopropyl-5-(3-methylbenzo-[d]isoxazol-5-yl)-4,5-dihydropyrrolo[3,4-c]pyrazol-6(2H)-one] | 490 nM | 0.661 µM | 1.43 µM |
| Cc1cc(N2C(=O)c3nn(C)c(O)c3C2c2ccc(Cl)cc2)cn(C)c1=O (centres unmarked) [Example 73, 4-(4-chlorophenyl)-5-(1,5-dimethyl-6-oxo-1,6-dihydropyridin-3-yl)-3-hydroxy-2-methyl-4,5-dihydropyrrolo[3,4-c]pyrazol-6(2H)-one] | > 10000 nM | 4.4 µM | > 10 µM |
| Cc1nn(C2CC2)c2c1C(c1ccc(Cl)cc1)N(c1ccc3nnn(C)c3n1)C2=O (centres unmarked) [Example 102, 4-(4-chlorophenyl)-1-cyclopropyl-3-methyl-5-(3-methyl-3H-[1,2,3]triazolo[4,5-b]-pyridin-5-yl)-4,5-dihydropyrrolo[3,4-c]pyrazol-6(1H)-one] | 230 nM | 0.141 µM | 0.304 µM |
| Cc1cc(N2C(=O)c3c(cnn3C3CC3)C2c2ccc(Cl)cc2)cn(C)c1=O (centres unmarked) [Example 34, 4-(4-chlorophenyl)-1-cyclopropyl-5-(1,5-dimethyl-6-oxo-1,6-dihydropyridin-3-yl)-4,5-dihydropyrrolo[3,4-c]pyrazol-6(1H)-one] | 202 nM | 0.14 µM | 0.321 µM |
| Cc1nn(-c2ccnn2C)c2c1C(c1ccc(Cl)cc1)N(c1cc(C)c(=O)n(C)c1)C2=O (racemic) [Example 74, 4-(4-chlorophenyl)-5-(1,5-dimethyl-6-oxo-1,6-dihydropyridin-3-yl)-3-methyl-1-(1-methyl-1H-pyrazol-5-yl)-4,5-dihydropyrrolo[3,4-c]pyrazol-6(1H)-one] | 44.2 nM | – | – |
| COc1ncc(-n2nc(C)c3c2C(=O)N(c2cc(C)c(=O)n(C)c2)C3c2ccc(Cl)cc2)c(OC)n1 (racemic) [Example 52, 4-(4-chlorophenyl)-1-(2,4-dimethoxypyrimidin-5-yl)-5-(1,5-dimethyl-6-oxo-1,6-dihydropyridin-3-yl)-3-methyl-4,5-dihydropyrrolo[3,4-c]pyrazol-6(1H)-one] | 117 nM | – | – |
